Test results reported in patent US6110955A, “Metabolically stabilized oxyalkylene esters and uses thereof” (Beacon Laboratories, Inc., priority 1997, dated 2000).

Columns and labels:
IMR-32 = assay: Clonogenicity in soft agar (growth inhibition); type: cell-based, human; details: Homo sapiens, read-out: clones relative to media-treated control cultures
Protocol: (§1) Inhibition of cancer cell growth in agar culture--clonogenicity was tested using cell lines as follows:
(§2) Cells were harvested, washed in complete media, and counted.
(§3) After overnight culture, AB or α-methyl-4-(2-methylpropyl)-benzeneacetyloxymethyl butyrate was added at the indicated concentration. The control cells received media alone.

NBAS-5 = assay: Clonogenicity in soft agar (growth inhibition); type: cell-based, human; details: Homo sapiens
Protocol: as §1, §2, §3

NBL-S = assay: Clonogenicity in soft agar (growth inhibition); type: cell-based, human; details: Homo sapiens
Protocol: as §1, §2, §3

SK-N-SH = assay: Clonogenicity in soft agar (growth inhibition); type: cell-based, human; details: Homo sapiens, read-out: clones relative to media-treated control cultures
Protocol: as §1, §2, §3

[1] = system: human neuroblastoma cell lines; assay: Clonogenicity across the neuroblastoma cell lines (summary); type: cell-based
Protocol: as §1, §2, §3

CFPAC = assay: Inhibition of cancer cell growth, sulforhodamine B (SRB) method; type: cell-based; details: Homo sapiens
Protocol: (§4) Inhibition of cancer cell growth was measured by the sulforhodamine B (SRB) method as described by Monks et al., J. Nat. Canc. Inst., (1991), 83: 757-766, incorporated herein in its entirety. The SRB assay is recognized by the National Institute for Cancer (NCI) as a reliable screen for anticancer drugs and is used by the NCI for this purpose. […] (FIGS. 3A-3D).

LOX IMVI = assay: as above; type: cell-based; details: Homo sapiens
Protocol: as §4

MCF7 = assay: as above; type: cell-based; details: Homo sapiens
Protocol: as §4

OVCAR-5 = assay: as above; type: cell-based; details: Homo sapiens
Protocol: as §4

[2] = system: β-globin disorders (β-thalassemia and sickle-cell anemia); details: β-thalassemia and sickle-cell anemia patients; cited from earlier work

SMILES: CCCC(=O)O [AB, arginine butyrate, reference compound]
- activity at 100 µM (IMR-32; IMR-32, 100 μM): 108%
- activity at 250 µM (IMR-32; IMR-32, 250 μM): 104%
- activity at 500 µM (IMR-32; IMR-32, 500 μM): 69 ± 7%
- activity at 1000 µM (IMR-32; IMR-32, 1000 μM): 49%
- activity at 2000 µM (IMR-32; IMR-32, 2000 μM): 21%
- IC50 (NBAS-5; NBAS-5): 833 µM
- activity at 100 µM (NBAS-5; NBAS-5, 100 μM, read-out: clones relative to media-treated control cultures): 85 ± 1%
- activity at 250 µM (NBAS-5; NBAS-5, 250 μM, read-out: clones relative to media-treated control cultures): 78 ± 2%
- activity at 500 µM (NBAS-5; NBAS-5, 500 μM, read-out: clones relative to media-treated control cultures): 68 ± 2%
- activity at 1000 µM (NBAS-5; NBAS-5, 1000 μM, read-out: clones relative to media-treated control cultures): 53%
- activity at 2000 µM (NBAS-5; NBAS-5, 2000 μM, read-out: clones relative to media-treated control cultures): 25%
- IC50 (NBL-S): 701 µM
- IC90 (NBL-S): 2000 µM
- activity at 100 µM (SK-N-SH; 100 μM): 99 ± 1%
- activity at 250 µM (SK-N-SH; 250 μM): 81 ± 1%
- activity at 500 µM (SK-N-SH; 500 μM): 75 ± 9%
- activity at 1000 µM (SK-N-SH; 1000 μM): 54 ± 2%
- activity at 2000 µM (SK-N-SH; 2000 μM): 24 ± 1%
- inhibition of clonogenicity (in words) [1]: dose-dependent manner
- inhibition at 31.25 pM (CFPAC; dosage 0.03125 nM): 6.6%
- inhibition at 62.5 pM (CFPAC; dosage 0.06250 nM): 4.8%
- inhibition at 0.000125 µM (CFPAC; dosage 0.12500 nM): 11.3%
- inhibition at 0.00025 µM (CFPAC; dosage 0.25000 nM): 1%
- inhibition at 0.0005 µM (CFPAC; dosage 0.50000 nM): 1.5%
- inhibition at 0.001 µM (CFPAC; dosage 1.00000 nM): 4.7%
- inhibition at 0.002 µM (CFPAC; dosage 2.00000 nM): 12.8%
- inhibition at 0.004 µM (CFPAC; dosage 4.00000 nM): 16.6%
- inhibition at 31.25 pM (LOX IMVI; dosage 0.03125 nM): 0%
- inhibition at 62.5 pM (LOX IMVI; dosage 0.06250 nM): 1.4%
- inhibition at 0.000125 µM (LOX IMVI; dosage 0.12500 nM): 1.5%
- inhibition at 0.00025 µM (LOX IMVI; dosage 0.25000 nM): 3.1%
- inhibition at 0.0005 µM (LOX IMVI; dosage 0.50000 nM): 1.8%
- inhibition at 0.001 µM (LOX IMVI; dosage 1.00000 nM): 11.8%
- inhibition at 0.002 µM (LOX IMVI; dosage 2.00000 nM): 10.7%
- inhibition at 0.004 µM (LOX IMVI; dosage 4.00000 nM): 23.3%
- inhibition at 31.25 pM (MCF7; MCF7, dosage 0.03125 nM): 0.3%
- inhibition at 62.5 pM (MCF7; MCF7, dosage 0.06250 nM): 0.2%
- inhibition at 0.000125 µM (MCF7; MCF7, dosage 0.12500 nM): 0%
- inhibition at 0.00025 µM (MCF7; MCF7, dosage 0.25000 nM): 0.1%
- inhibition at 0.0005 µM (MCF7; MCF7, dosage 0.50000 nM): 0%
- inhibition at 0.001 µM (MCF7; MCF7, dosage 1.00000 nM): 1.2%
- inhibition at 0.002 µM (MCF7; MCF7, dosage 2.00000 nM): 1.8%
- inhibition at 0.004 µM (MCF7; MCF7, dosage 4.00000 nM): 2.2%
- inhibition at 31.25 pM (OVCAR-5; OVCAR-5, dosage 0.03125 nM): 0%
- inhibition at 62.5 pM (OVCAR-5; OVCAR-5, dosage 0.06250 nM): 0.1%
- inhibition at 0.000125 µM (OVCAR-5; OVCAR-5, dosage 0.12500 nM): 0.5%
- inhibition at 0.00025 µM (OVCAR-5; OVCAR-5, dosage 0.25000 nM): 0.3%
- inhibition at 0.0005 µM (OVCAR-5; OVCAR-5, dosage 0.50000 nM): 1.3%
- inhibition at 0.001 µM (OVCAR-5; OVCAR-5, dosage 1.00000 nM): 2.5%
- inhibition at 0.002 µM (OVCAR-5; OVCAR-5, dosage 2.00000 nM): 6.6%
- inhibition at 0.004 µM (OVCAR-5; OVCAR-5, dosage 4.00000 nM): 29.3%
- reported side effects [2]: hypokalemia, headache, nausea and vomiting
